Laboratory results reported in article PMC8119466, “A screen of FDA-approved drugs identifies inhibitors of protein tyrosine phosphatase 4A3 (PTP4A3 or PRL-3)” (Scientific Reports, 2021).

Tests used:
[1] = test system: HEK293T cells; assay: Scratch (migration) assay, HEK293T transfected with PRL-3 or empty vector; type: cell-based, human; conditions: compared to DMSO; for cellular migration in control cells: HEK293T empty vector, 24 h; for cellular migration in PRL-3 overexpressing cells: HEK293T transfected with PRL-3, 24 h
Procedure: pENTR-PRL-3 (previously described[51]) was cloned into pLKO-CMV-puro using LR clonase (Thermofisher, 11,791,019) according to manufacturer’s directions. pLKO-CMV empty vector (EV) and pLKO-CMV:PRL-3 were transfected into HEK293T using Lipofectamine 3000 (ThermoFisher, L3000015) according to manufacturer’s protocol. Transfected cells were selected with 1 µg/mL puromycin in complete media to establish the cell line, then were maintained under 0.5 µg/mL puromycin in complete media. For PRL-3 knockdown, pLKO.1-scrambled shRNA and pLKO.1-PRL-3 shRNA[51] plasmids were transfected into HCT116 cells using Lipofectamine 3000 (Thermo Fisher, Cat # L3000015) according to the manufacturer’s directions. Cells were selected for 48 h in 1 µg/mL puromycin before use in assays.
Cells were seeded into duplicate wells of a 48 well plates at a density of 2 × 10^5 cells per well for HEK293T or 4 × 10^5 for HCT116 and SW480. Cells were recovered overnight and were scratched using a p20 pipette tip the following day. Compounds were added at the concentrations indicated. Images were obtained immediately after the scratch and after a 24 h incubation with the drug on an Evos FL inverted microscope (ThermoFisher). The area within the scratch was calculated using ImageJ. The area migrated was measured as the difference in wound area at 0 h and 24 h and the percent change in migration was calculated by dividing the difference in wound area of treatment by the difference in wound area of the control.

[2] = test system: HCT116 cells; assay: Click-IT Edu cell proliferation assay, HCT116; type: cell-based, human; conditions: HCT-116; 100 µM Salirasib or 25 µM Candesartan; 24 and 48 hr
Procedure: The cell proliferation assay was performed using the Click-IT Edu cell proliferation kit from (Thermo Fisher, Cat # C10419) according to the manufacturer’s protocol. Briefly, HEK293T, HCT116 and SW480 cells were plated in 6 well dishes at 4 × 10^5 cell seeding density and treated with DMSO, Candesartan and Salirasib at the indicated concentrations. Edu was added 2 h prior to collecting the cells at 24 h and 48 h time points and the assay was performed according to the instructions from the manual. Flow cytometry with AlexaFluor647 conjugated azide dye was used to determine the cellular proliferation and DAPI was used for the DNA content.

[3] = target: T1, MKP5 (Homo sapiens, UniProt Q9Y6W6); assay: PhosphataseProfiler (Eurofins) selectivity panel; type: biochemical; conditions: MKP5, 25µM
T1 construct: purchased Eurofins PP260
T1 sequence (Q9Y6W6 whole entry): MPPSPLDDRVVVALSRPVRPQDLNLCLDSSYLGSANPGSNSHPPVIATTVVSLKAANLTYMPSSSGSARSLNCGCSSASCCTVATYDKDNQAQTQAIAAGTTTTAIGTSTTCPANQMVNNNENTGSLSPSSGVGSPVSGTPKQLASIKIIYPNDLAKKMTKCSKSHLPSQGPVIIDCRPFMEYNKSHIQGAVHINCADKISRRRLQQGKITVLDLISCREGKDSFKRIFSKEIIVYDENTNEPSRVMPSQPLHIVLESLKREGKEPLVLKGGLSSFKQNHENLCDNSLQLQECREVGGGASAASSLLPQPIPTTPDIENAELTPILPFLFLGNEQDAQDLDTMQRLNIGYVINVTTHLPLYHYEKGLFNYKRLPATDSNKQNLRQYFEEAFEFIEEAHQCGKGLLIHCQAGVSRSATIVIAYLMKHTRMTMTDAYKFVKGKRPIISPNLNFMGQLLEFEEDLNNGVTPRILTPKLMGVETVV

[4] = target: T2, PP1alpha (Homo sapiens, UniProt P62136); assay: PhosphataseProfiler (Eurofins) selectivity panel; type: biochemical; conditions: 25µM
T2 construct: purchased Eurofins PP260
T2 sequence (P62136 whole entry): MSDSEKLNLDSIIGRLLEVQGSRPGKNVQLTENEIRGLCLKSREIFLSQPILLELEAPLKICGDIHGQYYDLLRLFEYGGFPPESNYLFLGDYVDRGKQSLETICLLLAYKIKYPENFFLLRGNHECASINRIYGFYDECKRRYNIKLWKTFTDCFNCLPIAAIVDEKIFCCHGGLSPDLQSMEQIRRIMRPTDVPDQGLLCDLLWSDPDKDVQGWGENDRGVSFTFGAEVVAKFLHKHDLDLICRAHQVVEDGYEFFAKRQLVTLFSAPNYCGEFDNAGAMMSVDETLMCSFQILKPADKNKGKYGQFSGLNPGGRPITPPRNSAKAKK

[5] = target: T3, CD45 (Homo sapiens, UniProt P08575); assay: PhosphataseProfiler (Eurofins) selectivity panel; type: biochemical; conditions: CD45, 25µM
T3 construct: purchased Eurofins PP260
Procedure: (§1) In 384 well plates, 2.5 μM recombinant PRL-1, PRL-2, or PRL-3 was combined with DiFUMP (Life Technologies, Cat # E12020) at the KM of each protein in reaction buffer (20 mM Tris–Cl, pH 7.5, 150 mM NaCl, 10 mM DTT) as previously reported. Briefly, protein was diluted in reaction buffer and allowed to incubate at 4 °C for 20 min to allow for full reduction of the active site. DiFMUP, drug, and protein were added, and plates were incubated for 20 min at room temperature. Fluorescence intensities were measured on a Cytation 5 plate reader (Biotek) at an EX:360 nm and EM:460 nm. Data were normalized to vehicle control and IC50 values were calculated on GraphPad Prism version 8. Inhibition selectivity for PRLs over a panel of other phosphatases was determined using PhosphataseProfiler (Eurofins, Cat # PP260).

[6] = target: T4, Lambda PP (Escherichia phage lambda, UniProt P03772); assay: PhosphataseProfiler (Eurofins) selectivity panel; type: biochemical; conditions: 25µM
T4 construct: purchased Eurofins PP260
T4 sequence (P03772 whole entry): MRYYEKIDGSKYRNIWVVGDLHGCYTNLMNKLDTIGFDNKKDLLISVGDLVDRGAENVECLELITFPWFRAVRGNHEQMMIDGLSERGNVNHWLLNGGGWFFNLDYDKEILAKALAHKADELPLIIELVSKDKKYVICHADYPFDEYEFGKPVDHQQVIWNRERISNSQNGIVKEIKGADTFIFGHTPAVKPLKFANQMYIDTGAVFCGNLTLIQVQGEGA
Procedure: as §1

[7] = test system: PP2A; assay: PhosphataseProfiler (Eurofins) selectivity panel; type: biochemical; conditions: 25µM
Procedure: as §1

[8] = target: T5, PTPMEG (Homo sapiens, UniProt P29074); assay: PhosphataseProfiler (Eurofins) selectivity panel; type: biochemical; conditions: 25µM
T5 construct: purchased Eurofins PP260
T5 sequence (P29074 whole entry): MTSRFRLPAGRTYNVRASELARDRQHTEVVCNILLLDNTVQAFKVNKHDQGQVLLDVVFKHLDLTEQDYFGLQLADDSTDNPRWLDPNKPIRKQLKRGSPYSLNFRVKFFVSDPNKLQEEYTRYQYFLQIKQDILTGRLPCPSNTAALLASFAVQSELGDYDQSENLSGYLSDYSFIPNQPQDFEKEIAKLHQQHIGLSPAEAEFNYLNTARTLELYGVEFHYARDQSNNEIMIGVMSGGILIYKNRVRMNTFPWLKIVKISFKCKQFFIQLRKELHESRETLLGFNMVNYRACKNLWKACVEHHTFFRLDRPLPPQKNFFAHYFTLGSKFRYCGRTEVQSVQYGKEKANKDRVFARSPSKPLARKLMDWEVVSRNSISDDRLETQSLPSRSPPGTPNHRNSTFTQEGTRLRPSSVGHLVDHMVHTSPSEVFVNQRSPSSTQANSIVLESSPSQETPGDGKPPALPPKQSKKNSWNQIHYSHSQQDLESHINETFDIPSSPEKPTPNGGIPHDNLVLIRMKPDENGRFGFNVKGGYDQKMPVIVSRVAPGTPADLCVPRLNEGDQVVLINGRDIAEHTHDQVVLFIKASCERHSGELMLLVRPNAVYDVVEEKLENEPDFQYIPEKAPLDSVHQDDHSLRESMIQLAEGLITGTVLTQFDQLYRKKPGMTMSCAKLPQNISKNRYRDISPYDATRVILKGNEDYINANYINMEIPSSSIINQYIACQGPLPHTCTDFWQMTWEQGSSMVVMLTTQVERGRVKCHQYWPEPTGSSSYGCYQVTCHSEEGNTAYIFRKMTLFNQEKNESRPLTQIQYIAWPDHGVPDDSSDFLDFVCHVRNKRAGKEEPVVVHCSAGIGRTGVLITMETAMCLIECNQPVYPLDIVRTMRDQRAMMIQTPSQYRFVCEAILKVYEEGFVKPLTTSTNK
Procedure: as §1

[9] = target: T6, PTPMEG2 (Homo sapiens, UniProt P43378); assay: PhosphataseProfiler (Eurofins) selectivity panel; type: biochemical; conditions: PTPMEG2, 25µM
T6 construct: purchased Eurofins PP260
T6 sequence (P43378 whole entry): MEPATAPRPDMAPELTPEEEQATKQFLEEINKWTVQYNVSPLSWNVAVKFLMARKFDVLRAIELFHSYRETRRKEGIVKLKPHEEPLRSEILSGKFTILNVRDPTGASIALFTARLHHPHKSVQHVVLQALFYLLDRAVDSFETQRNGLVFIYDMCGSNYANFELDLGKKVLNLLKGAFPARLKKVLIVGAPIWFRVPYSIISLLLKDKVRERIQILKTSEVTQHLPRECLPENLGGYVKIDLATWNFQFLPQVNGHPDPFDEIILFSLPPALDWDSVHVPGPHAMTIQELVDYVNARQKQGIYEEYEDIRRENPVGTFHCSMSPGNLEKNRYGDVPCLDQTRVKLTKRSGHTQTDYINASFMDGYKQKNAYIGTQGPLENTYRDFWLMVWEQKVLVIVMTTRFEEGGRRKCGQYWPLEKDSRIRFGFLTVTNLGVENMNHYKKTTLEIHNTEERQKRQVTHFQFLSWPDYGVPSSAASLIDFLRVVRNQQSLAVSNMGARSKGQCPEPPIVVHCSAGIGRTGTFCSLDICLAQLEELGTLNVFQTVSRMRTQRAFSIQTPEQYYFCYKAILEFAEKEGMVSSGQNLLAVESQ
Procedure: as §1

[10] = target: T7, PTPN22 (Homo sapiens, UniProt Q9Y2R2); assay: PhosphataseProfiler (Eurofins) selectivity panel; type: biochemical; conditions: PTPN22, 25µM
T7 construct: purchased Eurofins PP260
T7 sequence (Q9Y2R2 whole entry): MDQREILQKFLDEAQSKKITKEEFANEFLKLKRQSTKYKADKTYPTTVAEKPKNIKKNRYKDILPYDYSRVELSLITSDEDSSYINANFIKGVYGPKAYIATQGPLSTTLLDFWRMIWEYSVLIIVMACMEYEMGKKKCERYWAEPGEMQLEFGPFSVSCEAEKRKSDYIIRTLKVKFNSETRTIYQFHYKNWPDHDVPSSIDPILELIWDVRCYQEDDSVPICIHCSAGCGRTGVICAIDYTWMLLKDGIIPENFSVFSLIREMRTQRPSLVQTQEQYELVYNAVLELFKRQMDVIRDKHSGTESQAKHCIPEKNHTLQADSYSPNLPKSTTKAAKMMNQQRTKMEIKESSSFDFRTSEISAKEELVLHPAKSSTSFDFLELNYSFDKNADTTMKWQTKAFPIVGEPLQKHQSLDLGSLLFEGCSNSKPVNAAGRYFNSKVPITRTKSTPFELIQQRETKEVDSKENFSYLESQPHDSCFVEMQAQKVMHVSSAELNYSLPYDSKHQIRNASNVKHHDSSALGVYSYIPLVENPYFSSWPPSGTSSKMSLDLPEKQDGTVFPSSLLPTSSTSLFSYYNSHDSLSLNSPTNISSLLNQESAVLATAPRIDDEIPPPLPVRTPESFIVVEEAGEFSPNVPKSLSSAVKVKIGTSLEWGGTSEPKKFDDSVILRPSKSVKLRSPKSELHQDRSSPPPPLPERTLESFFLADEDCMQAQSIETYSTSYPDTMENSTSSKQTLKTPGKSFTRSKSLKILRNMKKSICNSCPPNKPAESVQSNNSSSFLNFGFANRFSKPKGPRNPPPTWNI

[11] = target: T8, SHP1 (Homo sapiens, UniProt P29350); assay: PhosphataseProfiler (Eurofins) selectivity panel; type: biochemical; conditions: SHP1, 25µM
T8 construct: purchased Eurofins PP260
T8 sequence (P29350 whole entry): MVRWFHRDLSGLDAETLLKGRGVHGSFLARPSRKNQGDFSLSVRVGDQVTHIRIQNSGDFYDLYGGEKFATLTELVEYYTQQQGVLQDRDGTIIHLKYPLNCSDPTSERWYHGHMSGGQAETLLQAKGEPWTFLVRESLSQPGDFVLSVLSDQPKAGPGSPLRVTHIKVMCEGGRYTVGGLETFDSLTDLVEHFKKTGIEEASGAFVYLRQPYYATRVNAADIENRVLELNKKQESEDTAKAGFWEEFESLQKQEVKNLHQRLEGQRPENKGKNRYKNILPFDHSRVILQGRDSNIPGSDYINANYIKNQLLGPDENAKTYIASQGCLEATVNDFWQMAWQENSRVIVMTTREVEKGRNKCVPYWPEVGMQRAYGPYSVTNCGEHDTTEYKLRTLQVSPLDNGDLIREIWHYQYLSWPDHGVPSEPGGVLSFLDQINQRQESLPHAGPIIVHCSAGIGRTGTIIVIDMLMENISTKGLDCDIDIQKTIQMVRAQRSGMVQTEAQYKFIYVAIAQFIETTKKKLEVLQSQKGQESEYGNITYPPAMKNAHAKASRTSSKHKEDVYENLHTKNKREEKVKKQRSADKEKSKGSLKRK

[12] = target: T9, SHP2 (Homo sapiens, UniProt Q06124); assay: PhosphataseProfiler (Eurofins) selectivity panel; type: biochemical; conditions: SHP2, 25µM
T9 construct: purchased Eurofins PP260
T9 sequence (Q06124 whole entry): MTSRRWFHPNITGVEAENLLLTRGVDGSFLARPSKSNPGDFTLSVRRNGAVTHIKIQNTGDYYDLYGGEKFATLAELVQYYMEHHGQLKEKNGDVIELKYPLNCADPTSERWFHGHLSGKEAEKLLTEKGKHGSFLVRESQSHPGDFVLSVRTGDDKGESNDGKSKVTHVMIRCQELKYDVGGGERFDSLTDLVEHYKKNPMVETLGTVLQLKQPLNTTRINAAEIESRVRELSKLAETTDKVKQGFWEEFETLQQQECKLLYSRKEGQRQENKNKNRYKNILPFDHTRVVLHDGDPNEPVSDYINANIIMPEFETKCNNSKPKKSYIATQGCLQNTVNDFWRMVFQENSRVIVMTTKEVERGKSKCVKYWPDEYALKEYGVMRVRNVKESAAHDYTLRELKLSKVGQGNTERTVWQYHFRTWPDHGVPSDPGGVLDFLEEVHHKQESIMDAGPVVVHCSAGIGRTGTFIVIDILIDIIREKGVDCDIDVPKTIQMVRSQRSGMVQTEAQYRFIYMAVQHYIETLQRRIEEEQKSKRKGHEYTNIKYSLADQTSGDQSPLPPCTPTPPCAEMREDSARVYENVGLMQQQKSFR

[13] = target: T10, TCPTP (Homo sapiens, UniProt P17706); assay: PhosphataseProfiler (Eurofins) selectivity panel; type: biochemical; conditions: 25µM
T10 construct: purchased Eurofins PP260
T10 sequence (P17706 whole entry): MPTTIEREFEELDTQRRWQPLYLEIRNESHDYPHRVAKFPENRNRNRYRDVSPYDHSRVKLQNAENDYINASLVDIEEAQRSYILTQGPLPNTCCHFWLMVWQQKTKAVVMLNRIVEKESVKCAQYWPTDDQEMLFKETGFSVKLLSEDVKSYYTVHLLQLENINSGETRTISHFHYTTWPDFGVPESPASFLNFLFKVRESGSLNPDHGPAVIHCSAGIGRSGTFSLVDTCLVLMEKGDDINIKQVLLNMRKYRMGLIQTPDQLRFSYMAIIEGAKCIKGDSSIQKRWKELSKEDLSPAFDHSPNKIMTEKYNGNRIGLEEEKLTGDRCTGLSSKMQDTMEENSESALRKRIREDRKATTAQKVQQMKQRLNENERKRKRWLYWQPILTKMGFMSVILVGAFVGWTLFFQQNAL

[14] = test system: HEK293T cells; assay: Annexin V staining, HEK293T; type: cell-based, human; conditions: 100 µM Salirasib or 25 µM Candesartan, 24 and 48 hr
Procedure: (§2) HEK293T, HCT116, and SW480 cells were plated in 6 well dishes at 4 × 10^5 cell seeding density and treated with DMSO, Candesartan and Salirasib at the indicated concentrations. Cells were collected at 24 h and 48 h time points and the AnnexinV staining was performed according to the instructions from the manual (Thermo Fisher, Cat # 00-0055-56). Flow cytometry with AnnexinV-FITC conjugated antibody (Thermo Fisher, Cat # A13199) was used to determine the population of cells incorporating Annexin V and PI was used for the DNA content.

[15] = test system: HCT116 cells; assay: Annexin V staining, HCT116; type: cell-based, human; conditions: HCT-116; 100 µM Salirasib or 25 µM Candesartan; 24 and 48 hr
Procedure: as §2

[16] = test system: SW480 cells; assay: Annexin V staining, SW480; type: cell-based, human; conditions: 100 µM Salirasib or 25 µM Candesartan, 24 and 48 hr
Procedure: as §2

[17] = target: T11, Yoph (Yersinia enterocolitica, UniProt P15273); assay: PhosphataseProfiler (Eurofins) selectivity panel; type: biochemical; conditions: 25µM
T11 construct: purchased Eurofins PP260
Procedure: as §1

SMILES: CC(C)=CCC/C(C)=C/CC/C(C)=C/CSc1ccccc1C(=O)O [Salirasib]
- cellular migration in control cells [1]: no corresponding reduction in migration
- cellular migration in PRL-3 overexpressing cells [1]: significant inhibition of cellular migration
- cell cycle (EdU staining) [2]: did not significantly impact
- Percent Phosphatase Activity (compared to DMSO) [3]: 106%
- Percent Phosphatase Activity (compared to DMSO) [4]: 104%
- Percent Phosphatase Activity (compared to DMSO) [5]: 102%
- Percent Phosphatase Activity (compared to DMSO) [6]: 112%
- Percent Phosphatase Activity (compared to DMSO) [7]: 107%
- Percent Phosphatase Activity (compared to DMSO) [8]: 107%
- Percent Phosphatase Activity (compared to DMSO) [9]: 102%
- Percent Phosphatase Activity (compared to DMSO) [10]: 129%
- Percent Phosphatase Activity (compared to DMSO) [11]: 113%
- Percent Phosphatase Activity (compared to DMSO) [12]: 103%
- Percent Phosphatase Activity (compared to DMSO) [13]: 118%

SMILES: CCOc1nc2cccc(C(=O)O)c2n1Cc1ccc(-c2ccccc2-c2nnn[nH]2)cc1 [Candesartan]
- cellular migration in control cells [1]: no corresponding reduction in migration
- cellular migration in PRL-3 overexpressing cells [1]: significant inhibition of cellular migration
- cell cycle (EdU staining) [2]: did not significantly impact
- apoptosis (AnnexinV plus propidium iodide) [14]: did not significantly impact
- apoptosis (AnnexinV plus propidium iodide) [15]: did not significantly impact
- apoptosis (AnnexinV plus propidium iodide) [16]: did not significantly impact
- Percent Phosphatase Activity (compared to DMSO) [3]: 99%
- Percent Phosphatase Activity (compared to DMSO) [4]: 105%
- Percent Phosphatase Activity (compared to DMSO) [5]: 100%
- Percent Phosphatase Activity (compared to DMSO) [6]: 107%
- Percent Phosphatase Activity (compared to DMSO) [7]: 110%
- Percent Phosphatase Activity (compared to DMSO) [8]: 109%
- Percent Phosphatase Activity (compared to DMSO) [9]: 97%
- Percent Phosphatase Activity (compared to DMSO) [17]: 112%
- Percent Phosphatase Activity (compared to DMSO) [10]: 136%
- Percent Phosphatase Activity (compared to DMSO) [11]: 116%
- Percent Phosphatase Activity (compared to DMSO) [12]: 104%
- Percent Phosphatase Activity (compared to DMSO) [13]: 128%
